# Test results from patent publication US20090111801A1, “SUBSTITUTED PYRAZINONE DERIVATIVES FOR USE AS A MEDICINE” (Janssen Pharmaceutica N.V., priority 2006, published 2009).
# Assays:
# [1] = molecular target: T1, hα2C receptor (Homo sapiens, UniProt P18825); assay: Radioligand binding experiment for α2C-adrenoceptor ([3H]raulwolscine, CHO cell membranes); conditions: [3H]raulwolscine binding; for IC50: read-out: h-α2C pIC50 (converted)
# T1 construct: expressed in transfected cells; host or cells: CHO cells, stably transfected; membrane preparation
# T1 sequence (P18825 1-462): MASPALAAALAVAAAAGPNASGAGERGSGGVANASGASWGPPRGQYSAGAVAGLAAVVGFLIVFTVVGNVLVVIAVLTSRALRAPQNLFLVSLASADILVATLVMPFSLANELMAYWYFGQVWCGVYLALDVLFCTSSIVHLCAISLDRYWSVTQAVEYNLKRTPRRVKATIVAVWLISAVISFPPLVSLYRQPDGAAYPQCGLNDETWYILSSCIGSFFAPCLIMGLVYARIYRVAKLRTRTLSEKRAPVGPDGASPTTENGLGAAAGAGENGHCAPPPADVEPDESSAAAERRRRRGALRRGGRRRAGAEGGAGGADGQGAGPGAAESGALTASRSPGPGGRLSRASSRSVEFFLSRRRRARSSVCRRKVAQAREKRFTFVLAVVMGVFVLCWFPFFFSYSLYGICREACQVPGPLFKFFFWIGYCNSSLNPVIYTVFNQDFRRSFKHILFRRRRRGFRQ
# [2] = molecular target: T2, hα2A receptor (Homo sapiens, UniProt P08913); assay: Radioligand binding experiment for α2A-adrenoceptor ([3H]raulwolscine, CHO cell membranes); conditions: [3H]raulwolscine binding; for IC50: read-out: h-α2A pIC50 (converted)
# T2 construct: expressed in transfected cells; host or cells: CHO cells, stably transfected; membrane preparation
# T2 sequence (P08913 1-465): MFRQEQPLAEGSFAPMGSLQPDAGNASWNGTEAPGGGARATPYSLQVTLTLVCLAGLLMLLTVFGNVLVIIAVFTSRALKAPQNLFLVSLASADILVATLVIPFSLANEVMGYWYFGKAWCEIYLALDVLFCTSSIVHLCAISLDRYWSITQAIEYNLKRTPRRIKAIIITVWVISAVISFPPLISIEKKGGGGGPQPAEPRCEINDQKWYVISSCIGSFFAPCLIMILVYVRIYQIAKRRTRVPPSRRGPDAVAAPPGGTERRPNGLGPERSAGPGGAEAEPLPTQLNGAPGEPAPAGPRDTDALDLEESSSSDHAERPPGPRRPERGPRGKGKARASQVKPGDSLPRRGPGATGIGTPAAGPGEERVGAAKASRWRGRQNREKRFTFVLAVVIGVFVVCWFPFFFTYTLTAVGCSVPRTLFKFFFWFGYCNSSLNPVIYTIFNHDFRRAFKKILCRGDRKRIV
# [3] = molecular target: T3, 5HT-Transporter (Homo sapiens, UniProt P31645); assay: Binding experiment for the 5HT-transporter ([3H]paroxetine, human platelet membranes); conditions: [3H]paroxetine 0.5 nM; for IC50: read-out: h-5HTT pIC50 (converted)
# T3 construct: Human platelet membranes (Oceanix Biosciences Corporation, Hanover, Md., USA) were thawed; tissue Oceanix Biosciences Corporation, Hanover, Md., USA; host or cells: human platelet membranes
# T3 sequence (P31645 whole entry): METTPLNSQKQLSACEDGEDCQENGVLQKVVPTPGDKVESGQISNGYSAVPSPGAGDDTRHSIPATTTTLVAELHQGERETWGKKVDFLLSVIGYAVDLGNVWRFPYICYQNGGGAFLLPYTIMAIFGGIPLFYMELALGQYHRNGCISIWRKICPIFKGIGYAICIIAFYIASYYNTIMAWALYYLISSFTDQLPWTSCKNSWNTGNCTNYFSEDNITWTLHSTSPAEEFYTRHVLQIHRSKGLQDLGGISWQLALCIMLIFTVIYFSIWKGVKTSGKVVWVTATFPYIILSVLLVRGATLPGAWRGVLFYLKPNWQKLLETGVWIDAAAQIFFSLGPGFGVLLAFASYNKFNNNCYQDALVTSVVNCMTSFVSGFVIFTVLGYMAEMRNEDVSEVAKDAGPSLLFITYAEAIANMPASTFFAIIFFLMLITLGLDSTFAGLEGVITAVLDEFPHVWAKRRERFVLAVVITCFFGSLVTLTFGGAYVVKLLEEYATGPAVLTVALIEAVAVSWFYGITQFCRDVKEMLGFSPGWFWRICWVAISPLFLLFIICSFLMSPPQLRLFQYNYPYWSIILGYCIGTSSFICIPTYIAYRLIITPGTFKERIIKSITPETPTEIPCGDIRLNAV
# In short: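 Competition binding of [3H]paroxetine to human platelet membranes in Tris-HCl 50 mM, 120 mM NaCl, 5 mM KCl, with filtration and scintillation counting.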
Structure (SMILES),IC50 [1] [nM],IC50 [2] [nM],IC50 [3] [nM],h-α2C pIC50 [1],h-α2A pIC50 [2],h-5HTT pIC50 [3]
C/C(=C\c1ccccc1)CN1CCC(Nc2nccn(CC(=O)N(Cc3ccccc3)c3ccccc3)c2=O)CC1 [1-69],39.8,158,794,–,–,–
C/C(=C\c1ccccc1)CN1CCC(Nc2nccn(CCN3CCCCC3)c2=O)CC1 [2-3],6.31,63.1,3160,–,–,–
C/C(=C\c1ccccc1)CN1CCC(Nc2nccn(-c3ccc(N)cc3)c2=O)CC1 [1-5],6.31,100,2000,–,–,–
COCCOCCn1ccnc(N(C)C2CCN(C/C(C)=C/c3ccccc3)CC2)c1=O [15-5],39.8,126,2000,–,–,–
C/C(=C\c1ccccc1)CN1CCC(Nc2nccn(CCCN(C(=O)Cc3ccccc3)c3ccccc3)c2=O)CC1 [1-88],12.6,126,631,–,–,–
C/C(=C\c1ccccc1)CN1CCC(Nc2nccn(CC(=O)NCCc3ccccc3)c2=O)CC1 [1-57],3.98,126,3160,–,–,–
C/C(=C\c1ccccc1)CN1CCC(Nc2nccn(CCCN(C)CC(=O)c3ccccc3)c2=O)CC1 [1-84],10,100,1260,–,–,–
C/C(=C\c1ccccc1)CN1CCC(Nc2nccn(-c3ccc(NC(=O)CC4CCCC4)cc3)c2=O)CC1 [1-35],50.1,251,1260,–,–,–
COCCNC(=O)c1ccc(-n2ccnc(NC3CCN(C/C(C)=C/c4ccccc4)CC3)c2=O)cc1 [1-22],12.6,100,631,–,–,–
C/C(=C\c1ccccc1)CN1CCC(Nc2nccn(CCCCN3C(=O)c4ccccc4C3=O)c2=O)CC1 [2-51],3.98,100,158,–,–,–
C/C(=C\c1ccccc1)CN1CCC(Nc2nccn(Cc3cccc(NCCN(C)C)c3)c2=O)CC1 [1-103],3.16,25.1,200,–,–,–
C/C(=C\c1ccccc1)CN1CCC(Nc2nccn(CC#CCN3C(=O)c4ccccc4C3=O)c2=O)CC1 [2-53],3.16,200,63.1,–,–,–
C/C(=C\c1ccccc1)CN1CCC(Nc2nccn(Cc3cccc(CN4CCOCC4)c3)c2=O)CC1 [2-45],10,50.1,794,–,–,–
C/C(=C\c1ccccc1)CN1CCC(N(C)c2nccn(CC3CCCCO3)c2=O)CC1 (stereo not drawn) [15-7],39.8,79.4,3160,–,–,–
CCCNC(=O)Cn1ccnc(NC2CCN(C/C(C)=C/c3ccccc3)CC2)c1=O [1-10],10,126,2000,–,–,–
COC(=O)Cn1ccnc(NC2CCN(C/C(C)=C/c3ccccc3)CC2)c1=O [3-7],10,100,7940,–,–,–
C/C(=C\c1ccccc1)CN1CCC(Nc2nccn(-c3cccc(CNCC4CCCO4)c3)c2=O)CC1 (stereo not drawn) [1-145],1.26,20,794,–,–,–
C/C(=C\c1ccccc1)CN1CCC(Nc2nccn(CCCN(Cc3ccccc3)C(=O)c3ccccc3)c2=O)CC1 [1-87],12.6,200,1580,–,–,–

Structure (SMILES),IC50 [1] [nM],IC50 [2] [nM],IC50 [3] [nM],h-α2C pIC50 [1],h-α2A pIC50 [2],h-5HTT pIC50 [3]
C/C(=C\c1ccccc1)CN1CCC(Nc2nccn(-c3ccc(CO)cc3)c2=O)CC1 [3-3],–,–,–,7.8,6.8,5.2
C/C(=C\c1ccccc1)CN1CCC(Nc2nccn(CC(=O)N(C)CCO)c2=O)CC1 [1-21],20,316,2510,–,–,–
C/C(=C\c1ccccc1)CN1CCC(Nc2nccn(-c3cccc(N4CCCCC4)c3)c2=O)CC1 [2-6],2.51,3.98,316,–,–,–
C/C(=C\c1ccccc1)CN1CCC(Nc2nccn(Cc3ccc(CNC(=O)NC4CCCCC4)cc3)c2=O)CC1 [1-118],79.4,398,501,–,–,–
C/C(=C\c1ccccc1)CN1CCC(Nc2nccn(CC(=O)N(C)CCc3ccccc3)c2=O)CC1 [1-61],6.31,100,1260,–,–,–
COC(=O)C1CCN(C(=O)c2ccc(-n3ccnc(NC4CCN(C/C(C)=C/c5ccccc5)CC4)c3=O)cc2)CC1 [2-16],5.01,50.1,501,–,–,–
CC(=O)NCc1ccc(Cn2ccnc(NC3CCN(C/C(C)=C/c4ccccc4)CC3)c2=O)cc1 [1-30],31.6,158,1260,–,–,–
C/C(=C\c1ccccc1)CN1CCC(Nc2nccn(CCCN(C(=O)Nc3ccccc3)c3ccccc3)c2=O)CC1 [1-122],7.94,100,200,–,–,–
C/C(=C\c1ccccc1)CN1CCC(Nc2nccn(-c3cccc(N4CCC(N5CCCC5)CC4)c3)c2=O)CC1 [2-18],1.26,12.6,794,–,–,–
C/C(=C\c1ccccc1)CN1CCC(Nc2nccn(-c3ccc(CNCCN4CCOCC4)cc3)c2=O)CC1 [1-150],3.98,100,794,–,–,–
C/C(=C\c1ccccc1)CN1CCC(Nc2nccn(-c3cccc(N4CCN(Cc5ccccc5)CC4)c3)c2=O)CC1 [2-31],6.31,31.6,398,–,–,–
C/C(=C\c1ccccc1)CN1CCC(Nc2nccn(CCCN(Cc3ccccc3)S(=O)(=O)c3ccccc3)c2=O)CC1 [1-170],12.6,200,251,–,–,–
C/C(=C\c1ccccc1)CN1CCC(Nc2nccn(-c3cccc(CN(C)CCN(C)C)c3)c2=O)CC1 [1-109],–,–,–,8.6,8.2,6.5
CCCNC(=O)c1ccc(-n2ccnc(NC3CCN(C/C(C)=C/c4ccccc4)CC3)c2=O)cc1 [1-13],7.94,79.4,398,–,–,–
C/C(=C\c1ccccc1)CN1CCC(Nc2nccn(Cc3ccc(CNC(=O)c4ccncc4)cc3)c2=O)CC1 [1-154],39.8,126,398,–,–,–
CCCC(=O)NCCCn1ccnc(NC2CCN(C/C(C)=C/c3ccccc3)CC2)c1=O [1-32],12.6,200,2510,–,–,–
C/C(=C\c1ccccc1)CN1CCC(Nc2nccn(-c3cccc(NS(=O)(=O)Cc4ccccc4)c3)c2=O)CC1 [1-166],12.6,63.1,316,–,–,–
C/C(=C\c1ccccc1)CN1CCC(Nc2nccn(-c3ccc(CNCCN(C)C)cc3)c2=O)CC1 [1-105],5.01,39.8,631,–,–,–

# Next, values leading:
IC50 [1] [nM],IC50 [2] [nM],IC50 [3] [nM],h-α2C pIC50 [1],h-α2A pIC50 [2],h-5HTT pIC50 [3],Structure (SMILES)
100,501,5010,–,–,–,C/C(=C\c1ccccc1)CN1CCC(Nc2nccn(Cc3ccc(C#N)cc3)c2=O)CC1 [5-20]
39.8,251,2000,–,–,–,C/C(=C\c1ccccc1)CN1CCC(Nc2nccn(Cc3csc(C)n3)c2=O)CC1 [6-7]
20,63.1,251,–,–,–,C/C(=C\c1ccccc1)CN1CCC(Nc2nccn(Cc3ccccc3Cl)c2=O)CC1 [5-17]
251,251,398,–,–,–,O=c1c(NC2CCN(C/C=C/c3ccccc3)CC2)nccn1Cc1ccc2ccccc2c1 [16-18]
39.8,158,2510,–,–,–,C/C(=C\c1ccccc1)CN1CCC(Nc2nccn(Cc3ccncc3)c2=O)CC1 [6-14]
200,501,1000,–,–,–,O=c1c(NC2CCN(C/C=C/c3ccccc3)CC2)nccn1Cc1cccc(Br)c1 [16-16]
31.6,158,501,–,–,–,C/C(=C\c1ccccc1)CN1CCC(Nc2nccn(Cc3ccccc3F)c2=O)CC1 [5-11]
79.4,398,2510,–,–,–,C/C(=C\c1ccccc1)CN1CCN(c2nccn(CCCNC(=O)OC(C)(C)C)c2=O)CC1 [8-3]
20,126,3160,–,–,–,C/C(=C\c1ccccc1)CN1CCC(Nc2nccn(Cc3csc(C)n3)c2=O)CC1 [6-6]
50.1,126,6310,–,–,–,CCCn1ccnc(N2CCN(C/C(C)=C/c3ccccc3)CC2)c1=O [14-2]
20,100,398,–,–,–,C/C(=C\c1ccccc1)CN1CCC(Nc2nccn(Cc3ccccc3C#N)c2=O)CC1 [5-19]
